{"source": "patent US10149470B2", "about": "“Methods and compositions for vein harvest and autografting” (Vanderbilt University, priority 2009, dated 2018)", "assay_type_in_all_cases": "cell-based", "key": {"porcine saphenous veins": {"system": "porcine saphenous veins", "settings": "pig, 15 min, 50 %", "procedure": "Freshly isolated porcine saphenous veins were used to test the effect of different marking methods. The veins were collected and placed in cold transplant harvest buffer [100 mM potassium lactobionate, 25 mM KH2PO4, 5 mM MgSO4, 30 mM raffinose, 5 mM adenosine, 3 mM glutathione, 1 mM allopurinol, 50 g/L hydroxyethyl starch, pH 7.4]. The vessels were stored in transplant harvest buffer at 4° C. and tested within 24 hours of harvest and. To test the viability, rings 1.0 mm in width were cut from segments of saphenous vein and dissected free of fat and connective tissue. Saphenous vein rings were untreated (Control; n=6), marked with the surgical skin marker (n=3), or 50% isopropyl alcohol (the solvent used in the surgical marker; n=3) and incubated for 15 min at room temperature. The rings were then equilibrated in a muscle bath, contracted with KCl, and force was measured and converted to stress (10^5 N/m^2). […] (FIG. 7)."}, "human saphenous vein [1]": {"system": "human saphenous vein", "settings": "15 min, pH 7.4", "procedure": "De-identified discarded segments of human saphenous vein were collected (n=66), after informed consent approved by the Institutional Review Board of the Vanderbilt University (Nashville, Tenn.), from patients undergoing coronary artery bypass or peripheral vascular bypass surgery. The veins were stored in a saline solution until the end of the surgical procedure at which time they were placed in cold transplant harvest buffer (100 mM potassium lactobionate, 25 mM KH2PO4, 5 mM MgSO4, 30 mM raffinose, 5 mM adenosine, 3 mM glutathione, 1 mM allopurinol, 50 g/L hydroxyethyl starch, pH 7.4) and stored at 4° C. The vessels were tested within 24 hours of harvest. The presense of blue markings were assessed for each HSV. Rings 1.0 mm in width were cut from segments of saphenous vein dissected free of fat and connective tissue, stripped of the endothelium and were suspended in a muscle bath containing a bicarbonate buffer (120 mM NaCl, 4.7 mM KCl, 1.0 mM MgSO4, 1.0 mM NaH2PO4, 10 mM glucose, 1.5 mM CaCl2, and 25 mM […], pH 7.4), gassed with 95% O2/5% CO2 at 37° C. The rings were manually stretched to 4 g of tension, and was maintained at a resting tension of 1 g was obtained and equilibrated for ˜2 hr. […] To determine viability, the rings were contracted with 110 mM KCl (with equimolar replacement of NaCl in bicarbonate buffer), and the force generated was measured. […]"}, "porcine saphenous vein [2]": {"system": "porcine saphenous vein", "assay": "Intimal thickening of distended porcine saphenous vein rings in 14 day organ culture", "settings": "50 μM dye, 14 days culture, distended to >300 mm Hg, compared to Distended-Control; FIG. 14", "procedure": "Fresh porcine saphenous vein was harvested by a no touch method under sterile conditions and stored in cold transplant harvest buffer (100 mM potassium lactobionate, 25 mM KH2PO4, 5 mM MgSO4, 30 mM Raffinose, 5 mM Adenosine, 3 mM Glutathione, 1 mM Allopurinol, 50 g/L Hydroxyethyl starch, pH 7.4). The vessels were used within 24 hr of harvest. The veins were divided into three segments that were left untreated (Unmanipulated, n=7), distended (Distended, n=8) to >300 mm Hg, or distended in the presence of the pressure relief valve (Pop Off, n=7). Each segment was then cut into ˜1 mm rings and one ring from each condition was immediately fixed in formalin (Pre-culture). The other rings were cultured in RPMI medium supplemented with 1% L-glutamine, penicillin/streptomycin and 30% Fetal bovine serum at 5% CO2 and 37° C. in the absence (Control) or presence of either 50 μM erioglaucine (FCF), 50 μM brilliant blue G (BBG) or 50 μM Allura Red (Red) for 14 days. After 14 days, the rings were fixed in formalin, sectioned at 5 μm and stained using Verhoff Van Gieson stain. Light micrograph of the rings was captured using a Axiovert 200 and intimal thickness was measured using AxioVision."}, "porcine saphenous vein [3]": {"system": "porcine saphenous vein", "assay": "KCl-induced contraction of porcine saphenous vein after stretch injury, with or without dye", "settings": "50 μM dye for 30 min on rings from stretched segments; FIG. 10", "procedure": "Freshly isolated porcine saphenous vein was collected in cold transplant harvest buffer (100 mM potassium lactobionate, 25 mM KH2PO4, 5 mM MgSO4, 30 mM raffinose, 5 mM adenosine, 3 mM glutathione, 1 mM allopurinol, 50 g/L hydroxyethyl starch, pH 7.4). The vessels were tested within 24 hours of harvest and storage in transplant harvest buffer at 4° C. The vein was dissected free of fat and connective tissue and cut into 2 cm long segments. The segments were stretched to twice their resting length (stretched; n=7) or not manipulated (control; n=12). After stretching, the segments from both groups were further divided. A solution of erioglaucine (FCF, 2.6 mM, in 5% propylene glycol and water) or vehicle was then applied with a cotton swab in a longitudinal line to the untreated (FCF; n=8) or the stretched (Stretched+FCF; n=3) vein segments. The segments were incubated at room temperature for 15 min in Plasmalyte and then cut into rings. The rings were suspended in a muscle bath containing a bicarbonate buffer (120 mM NaCl, 4.7 mM KCl, 1.0 mM MgSO4, 1.0 mM NaH2PO4, 10 mM glucose, 1.5 mM CaCl2, and 25 mM […], pH 7.4), bubbled with 95% O2/5% CO2 at 37° C. The rings were manually stretched to 4 g of tension, and maintained at a resting tension of 1 g and equilibrated for ˜2 hr.\nRings from stretched segments were either incubated with 50 μM Allura Red (+Red) or 50 μM of erioglaucine (+FCF) for 30 min. The rings were then allowed to equilibrate in the bicarbonate buffer for before contracting with 110 mM KCl. Force generated was converted to stress (10^5 N/m^2). Data represent relative contractile response to Control rings which was set as 100%."}, "human saphenous vein [4]": {"system": "human saphenous vein", "assay": "Papaverine effect on tension and on norepinephrine contraction of human saphenous vein rings", "method": "De-identified discarded segments of human saphenous vein (n=6) were collected, after informed consent approved by the Institutional Review Board of the Vanderbilt University (Nashville, Tenn.), from patients undergoing coronary artery bypass or peripheral vascular bypass surgery. The veins were stored in a saline solution until the end of the surgical procedure at which time they were placed in cold transplant harvest buffer (100 mM potassium lactobionate, 25 mM KH2PO4, 5 mM MgSO4, 30 mM raffinose, 5 mM adenosine, 3 mM glutathione, 1 mM allopurinol, 50 g/L hydroxyethyl starch, pH 7.4). The vessels were tested within 24 hrs of harvest and storage in transplant harvest buffer at 4° C. Veins were cleaned off fat and adventitial tissues and the endothelium was removed. […] The rings were contracted with 110 mM KCl (with equimolar replacement of NaCl in bicarbonate buffer), and the force generated was measured and converted to stress [Newtons (N)/m^2]==force (g)×0.0987/area, where area is equal to the wet weight [mg/length (mm at maximal length)] divided by 1.055. […] Rings were treated with 0.5 μM norepinephrine (NE), 1 mM papaverine (Pap), or 1 mM papaverine for 10 min followed by 0.5 μM NE and force generated was measured and converted to stress. […]"}, "porcine coronary artery": {"system": "porcine coronary artery", "assay": "Papaverine effect on tension and on histamine/KCl contraction of porcine coronary artery rings", "procedure": "Porcine coronary arteries were freshly isolated from euthanized pigs and placed directly into cold transplant harvest buffer (100 mM potassium lactobionate, 25 mM KH2PO4, 5 mM MgSO4, 30 mM Raffinose, 5 mM Adenosine, 3 mM Glutathione, 1 mM Allopurinol, 50 g/L Hydroxyethyl starch, pH 7.4). Coronary arteries were dissected free of fat and adventitial tissues and the endothelium was removed. Transverse rings (1.0 mm thickness) were cut and suspended in muscle bath, via silk 3-0 linked to force transducers (Kent Scientific, CT) interfaced with a Data Translation A-D board (Data Translation, MA). Data was acquired with the Power Lab software program. Porcine coronary artery rings were suspended in a muscle bath and equilibrated in Krebs Ringer bicarbonate buffer for 2 h. The rings were stretched and the length progressively adjusted until maximal tension was obtained. The rings were contracted with 110 mM KCl (with equimolar replacement of NaCl in bicarbonate buffer), and the force generated was measured and converted to stress [Newtons (N)/m^2]=force (g)×0.0987/area, where area is equal to the wet weight [mg/length (mm at maximal length)] divided by 1.055. Rings were washed and equilibrated for another 30 mins. Rings were treated with 5 μM histamine, 110 mM KCl, 1 mM papaverine (PAP), 1 mM papaverine for 10 min followed by 5 μM histamine or 1 mM papaverine for 10 min followed by 110 mM KCl and force generated was measured- and converted to stress. Representative force tracings of rings treated with 5 μM histamine (Hist), 110 mM KCl (KCl), 1 mM papaverine (PAP), 1 mM papaverine for 10 min followed by 5 μM histamine (Pap+Hist) or 1 mM papaverine for 10 min followed by 110 mM KCl (Pap+KCl) were depicted in FIG. 18A. Decrease in stress was converted to a percentage of the maximal initial KCl contraction which was set as 100%."}}}
{"molecule": "CC(C)O", "note": "[50% isopropyl alcohol, isopropyl alcohol]", "values": [{"measurement": "average stress, contraction with KCl", "setting": "porcine saphenous veins", "result": "5 ± 5", "unit": "N/m^2"}, {"measurement": "average stress, contraction with 110 mM KCl", "setting": "human saphenous vein [1]", "result": "0.005±0.003 10^5 N/m^2"}]}
{"molecule": "COc1cc(S(=O)(=O)[O-])c(C)cc1N=Nc1c(O)ccc2cc(S(=O)(=O)[O-])ccc12.[Na+].[Na+]", "note": "[Allura Red]", "values": [{"measurement": "distension induced increases in intimal thickening", "setting": "porcine saphenous vein [2]", "result": "but not allura red inhibited distension induced increases in intimal thickening"}, {"measurement": "restoration of functional viability (contractile response to KCl) after stretch injury", "setting": "porcine saphenous vein [3]", "result": "did not restore functional viability"}]}
{"molecule": "COc1ccc(Cc2nccc3cc(OC)c(OC)cc23)cc1OC", "note": "[papaverine]", "values": [{"measurement": "norepinephrine induced contraction after papaverine, percentage of the maximal initial KCl contraction", "setting": "human saphenous vein [4]; 1 mM papaverine 10 min then 0.5 μM NE, NE alone 89.935±18.344", "result": "−3.210±5.119", "unit": "%"}, {"measurement": "norepinephrine induced contractions (in words)", "setting": "human saphenous vein [4]; preincubation with papaverine, FIGS. 19A-B", "result": "inhibits norepinephrine induced contractions"}, {"measurement": "change of basal tension, percentage of the maximal initial KCl contraction", "setting": "porcine coronary artery; 1 mM papaverine", "result": "−15.0±3.135", "unit": "%"}, {"measurement": "histamine induced contraction after papaverine, percentage of the maximal initial KCl contraction", "setting": "porcine coronary artery; 1 mM papaverine 10 min then 5 μM histamine, histamine alone 98.613±11.049", "result": "−12.0±4.163", "unit": "%"}, {"measurement": "KCl induced contraction after papaverine, percentage of the maximal initial KCl contraction", "setting": "porcine coronary artery; 1 mM papaverine 10 min then 110 mM KCl, KCl alone 103.33±2.404", "result": "−20.0±10.00", "unit": "%"}, {"measurement": "histamine and KCl induced contractions (in words)", "setting": "porcine coronary artery; preincubation with papaverine, FIGS. 18A-B", "result": "inhibits histamine and KCl induced contractions"}]}
{"molecule": "CN(C)c1ccc2nc3ccc(=[N+](C)C)cc-3sc2c1", "note": "[methylene blue]", "values": [{"measurement": "average stress, contraction with 110 mM KCl", "setting": "human saphenous vein [1]", "result": "0.014±0.01 10^5 N/m^2"}]}
